From ChEMBL document CHEMBL3879915, “Methods of inhibiting PRMT5” (2014)

Molecular target: PRMT5/MEP50 complex (Homo sapiens, UniProt O14744)
Assay: Inhibition of recombinant human fetal brain FLAG-tagged PRMT5/full length human testis 6His-tagged MEP50 expressed in baculovirus infected insect Sf9 cells using human histone H4 (1 to 15 residues) as substrate preincubated for 30 mins followed by [3H]-SAM addition

Sequence of PRMT5/MEP50 complex (O14744 whole entry, the tested form may be a part): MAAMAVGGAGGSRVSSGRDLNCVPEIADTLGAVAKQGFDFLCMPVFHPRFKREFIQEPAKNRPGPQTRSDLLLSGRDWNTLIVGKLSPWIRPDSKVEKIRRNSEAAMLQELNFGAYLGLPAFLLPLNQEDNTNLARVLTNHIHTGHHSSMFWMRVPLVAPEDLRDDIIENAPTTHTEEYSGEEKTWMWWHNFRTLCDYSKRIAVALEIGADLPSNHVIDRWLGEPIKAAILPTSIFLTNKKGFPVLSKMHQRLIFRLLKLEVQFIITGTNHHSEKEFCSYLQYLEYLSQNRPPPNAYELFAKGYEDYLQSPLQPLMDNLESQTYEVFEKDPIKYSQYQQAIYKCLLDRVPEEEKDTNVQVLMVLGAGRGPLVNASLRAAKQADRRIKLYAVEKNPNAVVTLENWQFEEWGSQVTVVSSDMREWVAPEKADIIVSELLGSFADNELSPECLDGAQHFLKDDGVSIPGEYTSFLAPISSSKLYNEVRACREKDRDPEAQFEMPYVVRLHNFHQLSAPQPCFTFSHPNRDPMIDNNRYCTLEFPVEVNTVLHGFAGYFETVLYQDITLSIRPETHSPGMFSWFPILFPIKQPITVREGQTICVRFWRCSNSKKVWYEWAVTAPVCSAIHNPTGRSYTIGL
Sequence of PRMT5/MEP50 complex (Q9BQA1 whole entry, further chain, the tested form may be a part): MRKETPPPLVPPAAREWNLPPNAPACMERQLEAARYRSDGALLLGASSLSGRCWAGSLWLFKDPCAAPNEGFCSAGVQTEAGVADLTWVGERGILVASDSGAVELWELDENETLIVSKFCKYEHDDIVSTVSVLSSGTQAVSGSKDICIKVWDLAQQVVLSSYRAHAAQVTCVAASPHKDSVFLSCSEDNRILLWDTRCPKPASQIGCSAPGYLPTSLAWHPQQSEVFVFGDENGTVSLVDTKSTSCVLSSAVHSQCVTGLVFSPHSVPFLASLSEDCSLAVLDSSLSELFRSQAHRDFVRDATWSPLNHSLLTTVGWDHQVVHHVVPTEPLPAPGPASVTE

SMILES	IC50
O=C1CN(Cc2ccccn2)CCN1CC(O)CN1CCc2ccccc2C1 (configuration not stated)	1000 to 10000 nM
COc1ccc(Cn2ccc(-c3ccc(OC[C@H](O)CN4CCc5ccccc5C4)cc3)n2)cc1	1000 to 10000 nM
O=C(NCC(O)CN1CCc2ccccc2C1)c1cc(NC2CCOCC2)ccn1 (configuration not stated)	< 100 nM
CC(=O)N1CCN(CC(O)CN2CCc3ccccc3C2)C(=O)C1 (configuration not stated)	1000 to 10000 nM
Nc1ncccc1OCC(=O)NCC(O)CN1CCc2ccccc2C1 (configuration not stated)	1000 to 10000 nM
CC(C)(C)OC(=O)Nc1ccccc1OCC(=O)NCC(O)CN1CCc2ccccc2C1 (configuration not stated)	1000 to 10000 nM
OC(COc1cccc(-c2ccc(F)cc2)c1)CN1CCc2ccccc2C1 (configuration not stated)	1000 to 10000 nM
O=C1CC(c2ccccc2)CCN1C[C@H](O)CN1CCc2ccccc2C1 (some centres not stated)	1000 to 10000 nM
OC(COc1ccc(Cc2ccccc2)cc1)CN1CCc2ccccc2C1 (configuration not stated)	101 to 1000 nM
CS(=O)(=O)Nc1cccnc1OCC(=O)NCC(O)CN1CCc2ccccc2C1 (configuration not stated)	1000 to 10000 nM
O=C(COc1ccc(F)cc1)NCC(O)CN1CCc2ccccc2C1 (configuration not stated)	1000 to 10000 nM
OC(COc1ccc(OCc2ccccc2)cc1)CN1CCc2ccccc2C1 (configuration not stated)	1000 to 10000 nM
OCc1ccc(-c2cccc(OCC(O)CN3CCc4ccccc4C3)c2)cc1 (configuration not stated)	1000 to 10000 nM
O=C1CN(Cc2ccccc2)CCN1CC(O)CN1CCc2ccccc2C1 (configuration not stated)	1000 to 10000 nM
Oc1ccc(-c2cccc(OCC(O)CN3CCc4ccccc4C3)c2)cc1F (configuration not stated)	1000 to 10000 nM
O=C(NCC(O)CN1CCc2ccccc2C1)c1cccc(C(=O)N2CCOCC2)c1 (configuration not stated)	1000 to 10000 nM
CS(=O)(=O)c1ccc(OCC(=O)NCC(O)CN2CCc3ccccc3C2)cc1 (configuration not stated)	1000 to 10000 nM
CN(C)c1cncc(OCC(=O)NCC(O)CN2CCc3ccccc3C2)c1 (configuration not stated)	1000 to 10000 nM
O=C(COc1cccc(NC2CCOCC2)n1)NCC(O)CN1CCc2ccccc2C1 (configuration not stated)	1000 to 10000 nM
OC(COc1cccc(CNC2CCCCC2)c1)CN1CCc2ccccc2C1 (configuration not stated)	101 to 1000 nM
CC(=O)Nc1cncc(OCC(=O)NCC(O)CN2CCc3ccccc3C2)c1 (configuration not stated)	> 10000 nM
O=C(COC1CCOCC1)NCC(O)CN1CCc2ccccc2C1 (configuration not stated)	1000 to 10000 nM
COc1ccc(Cn2ccc(-c3ccc(OC[C@@H](O)CN4CCc5ccccc5C4)cc3)n2)cc1	10000 to 40000 nM

SMILES	IC50
OC(COc1cccc(CNC2CCOCC2)c1)CN1CCc2ccccc2C1 (configuration not stated)	101 to 1000 nM
OC(COCc1cc(-c2ccc(Cl)cc2)no1)CN1CCc2ccccc2C1 (configuration not stated)	101 to 1000 nM
O=C(COc1ccccc1OCCN1CCOCC1)NC[C@@H](O)CN1CCc2ccccc2C1	1000 to 10000 nM
O=C(NCC(O)CN1CCc2ccccc2C1)c1ccc(OC2CCOCC2)cc1 (configuration not stated)	< 100 nM
O=C(COc1ccccc1-c1c[nH]cn1)NCC(O)CN1CCc2ccccc2C1 (configuration not stated)	10000 to 50000 nM
O=C(COc1ccccc1)NC[C@@H](O)CN1CCc2ccccc2C1	1000 to 10000 nM
O=C1CC(c2ccccc2)CCN1C[C@@H](O)CN1CCc2ccccc2C1 (some centres not stated)	1000 to 10000 nM
O=c1cc(Nc2ccccc2)ccn1C[C@H](O)CN1CCc2ccccc2C1	1000 to 10000 nM
O=C1COCCN1CC(O)CN1CCc2ccccc2C1 (configuration not stated)	1000 to 10000 nM
OC(COc1cccc(-c2cccc(Oc3ccccc3)c2)c1)CN1CCc2ccccc2C1 (configuration not stated)	1000 to 10000 nM
O=C(NC[C@@H](O)CN1CCc2ccccc2C1)c1ccccc1	1000 to 10000 nM
OC(COc1ccccc1C1CCCCC1)CN1CCc2ccccc2C1 (configuration not stated)	1000 to 10000 nM
OC(COc1cccc(-c2ccc(Cl)cc2)c1)CN1CCc2ccccc2C1 (configuration not stated)	1000 to 10000 nM
OC(COc1cccc(CN2CCCCC2)c1)CN1CCc2ccccc2C1 (configuration not stated)	1000 to 10000 nM
OC(COCc1ccc(CN2CCOCC2)cc1)CN1CCc2ccccc2C1 (configuration not stated)	1000 to 10000 nM
CN1CCC(c2ccccc2OCC(=O)NCC(O)CN2CCc3ccccc3C2)C1 (configuration not stated)	1000 to 10000 nM
O=C(COc1cccc2[nH]c(=O)cnc12)NCC(O)CN1CCc2ccccc2C1 (configuration not stated)	1000 to 10000 nM
CC1CN(CC(O)COc2cccc(CNC3CCCC3)c2)Cc2ccccc21 (configuration not stated)	> 40000 nM
CS(=O)(=O)Nc1ccccc1C(=O)NCC(O)CN1CCc2ccccc2C1 (configuration not stated)	1000 to 10000 nM
OC(CCc1cccc(CNC2CCCC2)c1)CN1CCc2ccccc2C1 (configuration not stated)	10000 to 40000 nM
OC(COc1cccc(C2=CCCCC2)c1)CN1CCc2ccccc2C1 (configuration not stated)	1000 to 10000 nM
Cn1cnc2ccc(N3CCCC(OCC(O)CN4CCc5ccccc5C4)C3)cc21 (configuration not stated)	101 to 1000 nM
OC(COC1CCCN(c2ccccc2)C1)CN1CCc2ccccc2C1 (configuration not stated)	1000 to 10000 nM

SMILES	IC50
COc1cc(NC2CCOCC2)cc(C(=O)NCC(O)CN2CCc3ccccc3C2)c1 (configuration not stated)	101 to 1000 nM
O=C1CN(Cc2cccnc2)CCN1CC(O)CN1CCc2ccccc2C1 (configuration not stated)	1000 to 10000 nM
O=C(Cc1ccccc1)NC[C@@H](O)CN1CCc2ccccc2C1	10000 to 50000 nM
OC(COc1ccc(OCC(O)CN2CCc3ccccc3C2)cc1)CN1CCc2ccccc2C1 (configuration not stated)	101 to 1000 nM
O=C(NCC(O)CN1CCc2ccccc2C1)c1cc(NC2CCOCC2)ccc1F (configuration not stated)	101 to 1000 nM
Cc1ccc(-c2cccc(OCC(O)CN3CCc4ccccc4C3)c2)cn1 (configuration not stated)	1000 to 10000 nM
CC1Cc2ccccc2CN1CC(O)COc1cccc(CNC2CCCC2)c1 (configuration not stated)	> 40000 nM
O=C(CC1CCCCC1)NC[C@H](O)CN1CCc2ccccc2C1	1000 to 10000 nM
COc1ccc(Cn2nccc2-c2ccc(OC[C@H](O)CN3CCc4ccccc4C3)cc2)cc1	1000 to 10000 nM
O=C(NC1CCOCC1)c1cccc(NCC(O)CN2CCc3ccccc3C2)c1 (configuration not stated)	10000 to 40000 nM
NS(=O)(=O)c1cccc(OCC(=O)NCC(O)CN2CCc3ccccc3C2)c1 (configuration not stated)	1000 to 10000 nM
O=C(COc1ccccc1C1CNC1)NCC(O)CN1CCc2ccccc2C1 (configuration not stated)	1000 to 10000 nM
O=C1CN(C2CCOCC2)CCN1CC(O)CN1CCc2ccccc2C1 (configuration not stated)	1000 to 10000 nM
C[C@H](Oc1cccc2cccnc12)C(=O)NC[C@@H](O)CN1CCc2ccccc2C1	1000 to 10000 nM
CN(CC(O)CN1CCc2ccccc2C1)C(=O)CCc1ccccc1 (configuration not stated)	1000 to 10000 nM
COc1ccccc1-c1cccc(OCC(O)CN2CCc3ccccc3C2)c1 (configuration not stated)	1000 to 10000 nM
O=C(COC1CCCCC1)NCC(O)CN1CCc2ccccc2C1 (configuration not stated)	101 to 1000 nM
CS(=O)(=O)N1CCN(CC(O)CN2CCc3ccccc3C2)C(=O)C1 (configuration not stated)	1000 to 10000 nM
OC(COc1cccc(CNc2cc[nH]n2)c1)CN1CCc2ccccc2C1 (configuration not stated)	101 to 1000 nM
CC(C)(Oc1ccccc1)C(=O)NCC(O)CN1CCc2ccccc2C1 (configuration not stated)	101 to 1000 nM
CC(Nc1cccc(C(=O)NCC(O)CN2CCc3ccccc3C2)c1)C1CCOCC1 (configuration not stated)	101 to 1000 nM
OC(COc1ccccc1N1CCNCC1)CN1CCc2ccccc2C1 (configuration not stated)	10000 to 40000 nM
CC1(C)CC(Nc2cccc(C(=O)NCC(O)CN3CCc4ccccc4C3)c2)CCO1 (configuration not stated)	101 to 1000 nM

SMILES	IC50
OC(COc1cccc(CNC2CCNCC2)c1)CN1CCc2ccccc2C1 (configuration not stated)	1000 to 10000 nM
CC(=O)Nc1ncccc1OCC(=O)NCC(O)CN1CCc2ccccc2C1 (configuration not stated)	> 10000 nM
CN(C)c1cccnc1OCC(=O)NCC(O)CN1CCc2ccccc2C1 (configuration not stated)	> 10000 nM
Cc1cccc(N2CCN(CC(O)CN3CCc4ccccc4C3)C(=O)C2)c1 (configuration not stated)	10000 to 50000 nM
O=c1cccc(CC(O)CN2CCc3ccccc3C2)[nH]1 (configuration not stated)	10000 to 50000 nM
O=C(COc1cccc2cccnc12)NCC(O)CN1Cc2ccccc2C(F)(F)C1 (configuration not stated)	> 10000 nM
CN1CCN(CC(O)CN2CCc3ccccc3C2)C(=O)C1 (configuration not stated)	> 50000 nM
O=C(Cc1ccccc1)NC[C@H](O)CN1CCc2ccccc2C1	101 to 1000 nM
OC(COc1ccccc1-c1ccno1)CN1CCc2ccccc2C1 (configuration not stated)	1000 to 10000 nM
OC(COc1ccc(-c2ccn[nH]2)cc1)CN1CCc2ccccc2C1 (configuration not stated)	1000 to 10000 nM
O=C(CCc1ccccc1)NCC(O)CN1CCc2ccccc2C1 (configuration not stated)	1000 to 10000 nM
CN(c1cccc(C(=O)NCC(O)CN2CCc3ccccc3C2)c1)C1CCOCC1 (configuration not stated)	101 to 1000 nM
Cc1cc(OCC(O)CN2CCc3ccccc3C2)c(C)cc1CN1CCOCC1 (configuration not stated)	101 to 1000 nM
O=C(COc1cccc2c1CCCN2)NCC(O)CN1CCc2ccccc2C1 (configuration not stated)	101 to 1000 nM
NS(=O)(=O)c1ccccc1C(=O)NCC(O)CN1CCc2ccccc2C1 (configuration not stated)	1000 to 10000 nM
CC(=O)Nc1cccnc1OCC(=O)NCC(O)CN1CCc2ccccc2C1 (configuration not stated)	> 50000 nM
OC(COc1cccc(-c2cccnc2)c1)CN1CCc2ccccc2C1 (configuration not stated)	1000 to 10000 nM
OC(COc1cccc(C2CCCCC2)c1)CN1CCc2ccccc2C1 (configuration not stated)	1000 to 10000 nM
CC(Oc1ccccc1S(N)(=O)=O)C(=O)NCC(O)CN1CCc2ccccc2C1 (configuration not stated)	> 50000 nM
NS(=O)(=O)c1ccc(OCC(=O)NCC(O)CN2CCc3ccccc3C2)cc1 (configuration not stated)	1000 to 10000 nM
CN(C)S(=O)(=O)c1cccc(-c2cccc(OCC(O)CN3CCc4ccccc4C3)c2)c1 (configuration not stated)	> 40000 nM
CN(CC(O)CN1CCc2ccccc2C1)C(=O)COc1ccccc1 (configuration not stated)	10000 to 50000 nM
OC(COc1cccc2ccc(N3CCOCC3)nc12)CN1CCc2ccccc2C1 (configuration not stated)	1000 to 10000 nM

SMILES	IC50
O=C(CC1CCCCC1)NC[C@@H](O)CN1CCc2ccccc2C1	10000 to 50000 nM
O=C(Cc1ccncc1)NCC(O)CN1CCc2ccccc2C1 (configuration not stated)	10000 to 50000 nM
OC(COC1CCN(Cc2ccccc2)C1)CN1CCc2ccccc2C1 (configuration not stated)	1000 to 10000 nM
COc1ccc(Cl)c(-c2cccc(OCC(O)CN3CCc4ccccc4C3)c2)c1 (configuration not stated)	1000 to 10000 nM
CS(=O)(=O)Nc1ncccc1OCC(=O)NCC(O)CN1CCc2ccccc2C1 (configuration not stated)	> 10000 nM
O=C(NCC(O)CN1CCc2ccccc2C1)c1cccc(NC2COC2)c1 (configuration not stated)	101 to 1000 nM
O=C(NC[C@H](O)CN1CCc2ccccc2C1)Oc1ccccc1	1000 to 10000 nM
CN(C)c1ccc(N2CCN(C[C@H](O)CN3CCc4ccccc4C3)C(=O)C2)cc1	1000 to 10000 nM
COc1cccc2c1CCN(CC(O)COc1cccc(CNC3CCCC3)c1)C2 (configuration not stated)	> 40000 nM
COc1ccc(Cn2nccc2-c2ccc(OC[C@@H](O)CN3CCc4ccccc4C3)cc2)cc1	> 40000 nM
O=C(NCC(O)CN1CCc2ccccc2C1)c1cccc(CN2CCOCC2)c1 (configuration not stated)	101 to 1000 nM
O=C(NC[C@@H](O)CN1CCc2ccccc2C1)Nc1ccccc1	1000 to 10000 nM
OC(COc1cccc(OCc2ccccc2)c1)CN1CCc2ccccc2C1 (configuration not stated)	1000 to 10000 nM
O=C(NC1CCOCC1)C1CC(=O)N(CC(O)CN2CCc3ccccc3C2)C1 (configuration not stated)	> 10000 nM
Cn1cc(-c2cccc(OCC(O)CN3CCc4ccccc4C3)c2)cn1 (configuration not stated)	1000 to 10000 nM
O=C(NCC(O)CN1CCc2ccccc2C1)c1cncc(NC2CCOCC2)c1 (configuration not stated)	< 100 nM
NC(=O)c1ccc(OCC(=O)NCC(O)CN2CCc3ccccc3C2)cc1 (configuration not stated)	1000 to 10000 nM
OC(COc1cccc(-c2cncc(F)c2)c1)CN1CCc2ccccc2C1 (configuration not stated)	1000 to 10000 nM
CN1CC(c2ccccc2OCC(=O)NCC(O)CN2CCc3ccccc3C2)C1 (configuration not stated)	1000 to 10000 nM
O=C(COc1cccc2c1CCCN2Cc1ccccc1)NCC(O)CN1CCc2ccccc2C1 (configuration not stated)	< 100 nM
